Data on three compounds can be found in paper PMC10444810, “Induction of open-form bile canaliculus formation by hepatocytes for evaluation of biliary drug excretion” (Communications Biology, 2023).

What all share (type): in vitro ADME
Settings in all cases: for Enzyme activity, Mean: mean of Well-1 to Well-4

In data set [1] the target is T1, CYP2C9 (Homo sapiens, UniProt P11712).
T1 construct: host or cells: PXB-cells (icHep: JFC, HUM181001B; sandwich culture: JFC)
Put plainly: Metabolic assay, cocktail substrate method (diclofenac to 4’-hydroxydiclofenac). As for the experimental part:
(§1) The metabolic activity of icHep and sandwich-cultured PXB-cells was measured using the cocktail substrate method of drug-metabolizing enzymes. The components of the cocktail are summarized in Supplementary Table 1. Assays were initiated by treating cells with TB containing cocktail substrates. Time point of each substrate was set when a linear increase in its metabolite production was observed. Concentrations of metabolites produced in the medium were measured by liquid chromatography-mass spectrometry (LC-MS/MS).

The target in data set [2] is T2, CYP2C19 (Homo sapiens, UniProt P33261).
T2 construct: host or cells: PXB-cells (icHep: JFC, HUM181001B; sandwich culture: JFC)
T2 sequence (P33261 whole entry): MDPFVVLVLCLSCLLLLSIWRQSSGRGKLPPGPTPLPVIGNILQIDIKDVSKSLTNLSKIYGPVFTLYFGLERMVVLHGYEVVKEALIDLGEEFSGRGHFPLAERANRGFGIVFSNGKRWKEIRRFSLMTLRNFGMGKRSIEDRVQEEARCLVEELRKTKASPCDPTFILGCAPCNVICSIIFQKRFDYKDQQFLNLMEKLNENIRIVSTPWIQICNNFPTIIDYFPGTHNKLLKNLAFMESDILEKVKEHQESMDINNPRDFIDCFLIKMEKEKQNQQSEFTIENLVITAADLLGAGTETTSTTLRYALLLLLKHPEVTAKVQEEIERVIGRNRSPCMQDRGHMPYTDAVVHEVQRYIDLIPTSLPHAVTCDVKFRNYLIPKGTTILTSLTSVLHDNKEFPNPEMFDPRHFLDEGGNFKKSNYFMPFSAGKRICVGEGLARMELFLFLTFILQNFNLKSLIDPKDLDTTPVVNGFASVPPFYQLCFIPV
Put plainly: Metabolic assay, cocktail substrate method ((S)-mephenytoin to 4’-hydroxymephenytoin). As for the experimental part: as §1

For data set [3], the target named is T3, CYP2B6 (Homo sapiens, UniProt P20813).
T3 construct: host or cells: PXB-cells (icHep: JFC, HUM181001B; sandwich culture: JFC)
T3 sequence (P20813 1-491): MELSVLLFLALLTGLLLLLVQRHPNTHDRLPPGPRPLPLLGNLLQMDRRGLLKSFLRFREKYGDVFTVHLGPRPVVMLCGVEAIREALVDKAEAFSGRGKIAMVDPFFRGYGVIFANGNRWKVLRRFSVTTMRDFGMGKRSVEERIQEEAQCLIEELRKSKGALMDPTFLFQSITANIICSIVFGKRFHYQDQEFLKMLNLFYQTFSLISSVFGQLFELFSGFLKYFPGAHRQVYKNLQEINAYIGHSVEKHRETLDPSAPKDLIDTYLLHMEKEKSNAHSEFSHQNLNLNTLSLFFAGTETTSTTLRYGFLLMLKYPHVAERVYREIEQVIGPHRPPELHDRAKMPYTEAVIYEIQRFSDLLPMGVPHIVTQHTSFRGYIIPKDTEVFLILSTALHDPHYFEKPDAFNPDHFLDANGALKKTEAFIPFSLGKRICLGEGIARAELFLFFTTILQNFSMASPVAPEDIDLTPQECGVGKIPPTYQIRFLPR
Briefly: Metabolic assay, cocktail substrate method (bupropion to hydroxybupropion). As for the experimental part:
as §1

The mark [4] stands for this setting: PXB-cells (JFC), incubation time 15 min, single wells.
Setting [5] is: PXB-cells (JFC), incubation time 45 min, single wells.
Setting [6] is: PXB-cells (JFC), incubation time 60 min, single wells.
Setting [7] is: PXB-cells (JFC), incubation time 90 min, single wells.
Setting [8] is: icHep (HUM18100B), incubation time 15 min, single wells.
The mark [9] stands for this setting: icHep (HUM18100B), incubation time 30 min, single wells.
Where [10] appears, read: icHep (HUM18100B), incubation time 45 min, single wells.
The mark [11] stands for this setting: icHep (HUM18100B), incubation time 60 min, single wells.
The mark [12] stands for this setting: icHep (HUM18100B), incubation time 90 min, single wells.
The mark [13] stands for this setting: icHep (HUM18100B), rate per single well.
Where [14] appears, read: icHep (JFC), incubation time 15 min, single wells.
[15] abbreviates: icHep (JFC), incubation time 30 min, single wells.
[16] abbreviates: icHep (JFC), incubation time 45 min, single wells.
[17] abbreviates: icHep (JFC), incubation time 60 min, single wells.
[18] abbreviates: icHep (JFC), incubation time 90 min, single wells.
Where [19] appears, read: icHep (JFC), rate per single well.

“And” between values parts separate entries of the source, which are not always exact repeats. Identical values can stand only once.

T1 sequence (P11712 whole entry): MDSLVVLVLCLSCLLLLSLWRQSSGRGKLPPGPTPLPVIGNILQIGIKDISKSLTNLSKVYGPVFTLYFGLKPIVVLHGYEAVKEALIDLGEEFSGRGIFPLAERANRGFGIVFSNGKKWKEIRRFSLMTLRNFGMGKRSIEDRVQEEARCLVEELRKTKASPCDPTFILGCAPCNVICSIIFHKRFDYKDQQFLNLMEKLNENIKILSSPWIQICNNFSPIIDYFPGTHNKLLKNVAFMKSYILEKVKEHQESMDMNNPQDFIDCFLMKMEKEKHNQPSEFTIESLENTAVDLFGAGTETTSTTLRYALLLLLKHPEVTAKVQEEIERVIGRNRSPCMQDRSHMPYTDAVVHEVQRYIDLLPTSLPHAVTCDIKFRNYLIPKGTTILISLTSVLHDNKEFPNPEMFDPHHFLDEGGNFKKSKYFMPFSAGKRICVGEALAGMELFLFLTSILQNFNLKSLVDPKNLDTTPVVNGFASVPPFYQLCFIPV

As for `O=C(O)Cc1ccccc1Nc1c(Cl)cc(O)cc1Cl` [4'-Hydroxydiclofenac], the Enzyme activity in data set [1] (setting [4]) is 32.4909 pmol/106 cells and 28.9867 pmol/106 cells and 32.417 pmol/106 cells and 39.4949 pmol/106 cells; in data set [1] (setting [5]) it was 103.35 pmol/106 cells and 157.866 pmol/106 cells and 142.816 pmol/106 cells and 89.3242 pmol/106 cells; in data set [1] (setting [6]), 194.793 pmol/106 cells and 123.239 pmol/106 cells and 152.615 pmol/106 cells and 131.028 pmol/106 cells; in data set [1] (setting [7]), 221.365 pmol/106 cells and 186.616 pmol/106 cells and 184.241 pmol/106 cells and 181.726 pmol/106 cells; in data set [1] (setting [8]), 62.619 pmol/106 cells and 66.4901 pmol/106 cells and 58.8292 pmol/106 cells and 61.6593 pmol/106 cells; in data set [1] (setting [9]), 81.779 pmol/106 cells and 78.031 pmol/106 cells and 78.5116 pmol/106 cells and 74.8686 pmol/106 cells. For the same compound, the Enzyme activity was 182.486 pmol/106 cells and 164.871 pmol/106 cells and 179.779 pmol/106 cells and 151.258 pmol/106 cells in data set [1] (setting [10]); 261.919 pmol/106 cells and 224.09 pmol/106 cells and 240.209 pmol/106 cells and 233.857 pmol/106 cells in data set [1] (setting [11]); 338.304 pmol/106 cells and 344.261 pmol/106 cells and 316.721 pmol/106 cells and 314.843 pmol/106 cells in data set [1] (setting [12]); 6.00 pmol/min/106 cells and 4.87 pmol/min/106 cells and 5.39 pmol/min/106 cells and 5.30 pmol/min/106 cells in data set [1] (setting [13]); 37.2763 pmol/106 cells and 45.1543 pmol/106 cells and 35.8326 pmol/106 cells and 34.722 pmol/106 cells in data set [1] (setting [14]); 59.5169 pmol/106 cells and 77.189 pmol/106 cells and 52.7871 pmol/106 cells and 61.7238 pmol/106 cells in data set [1] (setting [15]). Besides, the Enzyme activity is 104.976 pmol/106 cells and 107.851 pmol/106 cells and 132.309 pmol/106 cells and 91.4661 pmol/106 cells in data set [1] (setting [16]); 189.516 pmol/106 cells and 192.792 pmol/106 cells and 199.605 pmol/106 cells and 200.079 pmol/106 cells in data set [1] (setting [17]); 261.512 pmol/106 cells and 227.854 pmol/106 cells and 218.992 pmol/106 cells and 224.098 pmol/106 cells in data set [1] (setting [18]); 4.33 pmol/min/106 cells and 3.85 pmol/min/106 cells and 4.89 pmol/min/106 cells and 4.61 pmol/min/106 cells in data set [1] (setting [19]). The “Enzyme activity, Mean” value was 3.17 pmol/min/106 cells in data set [1] (PXB-cells (JFC)), 5.39 pmol/min/106 cells in data set [1] (icHep (HUM18100B)) and 4.42 pmol/min/106 cells in data set [1] (icHep (JFC)).

Take `CC[C@@]1(c2ccc(O)cc2)NC(=O)N(C)C1=O` [4'-hydroxymephenytoin]: the Enzyme activity in data set [2] (PXB-cells (JFC), incubation time 30 min, single wells) was 56.4054 pmol/106 cells and 48.3281 pmol/106 cells and 62.3033 pmol/106 cells and 62.1838 pmol/106 cells; in data set [2] (setting [5]), 95.7591 pmol/106 cells and 93.7057 pmol/106 cells and 89.6102 pmol/106 cells and 94.8294 pmol/106 cells; in data set [2] (setting [6]), 136.786 pmol/106 cells and 120.497 pmol/106 cells and 123.843 pmol/106 cells and 115.035 pmol/106 cells; in data set [2] (setting [7]), 86.2332 pmol/106 cells and 112.727 pmol/106 cells and 89.0355 pmol/106 cells and 99.3009 pmol/106 cells; in data set [2] (setting [8]), 50.5312 pmol/106 cells and 52.3394 pmol/106 cells and 56.2209 pmol/106 cells and 49.5383 pmol/106 cells; in data set [2] (setting [9]) it was 80.4095 pmol/106 cells and 100.579 pmol/106 cells and 91.6841 pmol/106 cells and 101.877 pmol/106 cells. In addition, the Enzyme activity was 142.367 pmol/106 cells and 129.072 pmol/106 cells and 120.304 pmol/106 cells and 122.788 pmol/106 cells in data set [2] (setting [10]); 162.513 pmol/106 cells and 158.829 pmol/106 cells and 171.479 pmol/106 cells and 144.395 pmol/106 cells in data set [2] (setting [11]); 188.684 pmol/106 cells and 187.153 pmol/106 cells and 171.43 pmol/106 cells and 198.851 pmol/106 cells in data set [2] (setting [12]); 3.06 pmol/min/106 cells and 2.56 pmol/min/106 cells and 2.14 pmol/min/106 cells and 2.44 pmol/min/106 cells in data set [2] (setting [13]); 42.1708 pmol/106 cells and 39.5525 pmol/106 cells and 21.6896 pmol/106 cells and 37.3866 pmol/106 cells in data set [2] (setting [14]); 65.4216 pmol/106 cells and 67.8652 pmol/106 cells and 74.7797 pmol/106 cells and 75.4174 pmol/106 cells in data set [2] (setting [15]). Further, the Enzyme activity is 91.82 pmol/106 cells and 75.2152 pmol/106 cells and 103.29 pmol/106 cells and 100.957 pmol/106 cells in data set [2] (setting [16]); 121.361 pmol/106 cells and 85.9573 pmol/106 cells and 140.345 pmol/106 cells and 108.521 pmol/106 cells in data set [2] (setting [17]); 124.213 pmol/106 cells and 122.549 pmol/106 cells and 116.257 pmol/106 cells and 126.058 pmol/106 cells in data set [2] (setting [18]). Further, the “Enzyme activity, Mean” value is listed as 2.25 pmol/min/106 cells in data set [2] (PXB-cells (JFC)), 2.55 pmol/min/106 cells in data set [2] (icHep (HUM18100B)) and 2.38 pmol/min/106 cells in data set [2] (icHep (JFC)).

Regarding `C[C@H]1NC(C)(C)CO[C@]1(O)c1cccc(Cl)c1` [Hydroxybupropion], the Enzyme activity is 28.7722 pmol/106 cells and 21.7302 pmol/106 cells and 27.8435 pmol/106 cells and 35.831 pmol/106 cells in data set [3] (setting [4]); 59.3541 pmol/106 cells and 57.6847 pmol/106 cells and 69.4473 pmol/106 cells and 46.5889 pmol/106 cells in data set [3] (setting [5]); 62.0864 pmol/106 cells and 73.8816 pmol/106 cells and 59.3241 pmol/106 cells and 58.6637 pmol/106 cells in data set [3] (setting [6]); 76.5226 pmol/106 cells and 51.4054 pmol/106 cells and 51.8001 pmol/106 cells and 50.3819 pmol/106 cells in data set [3] (setting [7]); 25.5794 pmol/106 cells and 30.4047 pmol/106 cells and 24.7422 pmol/106 cells and 24.915 pmol/106 cells in data set [3] (setting [8]); 35.9071 pmol/106 cells and 54.335 pmol/106 cells and 43.958 pmol/106 cells and 62.1937 pmol/106 cells in data set [3] (setting [9]). The Enzyme activity in data set [3] (setting [10]) was 67.877 pmol/106 cells and 59.438 pmol/106 cells and 65.4881 pmol/106 cells and 59.5632 pmol/106 cells; in data set [3] (setting [11]), 76.2731 pmol/106 cells and 66.7099 pmol/106 cells and 66.2746 pmol/106 cells and 64.1847 pmol/106 cells; in data set [3] (setting [12]), 84.2201 pmol/106 cells and 81.8175 pmol/106 cells and 75.5651 pmol/106 cells and 70.6836 pmol/106 cells; in data set [3] (setting [13]), 1.41 pmol/min/106 cells and 0.968 pmol/min/106 cells and 1.36 pmol/min/106 cells and 1.15 pmol/min/106 cells; in data set [3] (setting [14]), 26.9509 pmol/106 cells and 26.6361 pmol/106 cells and 28.1971 pmol/106 cells and 21.5678 pmol/106 cells; in data set [3] (setting [15]) it was 50.8052 pmol/106 cells and 52.8459 pmol/106 cells and 41.4458 pmol/106 cells and 41.1487 pmol/106 cells. Besides, the Enzyme activity in data set [3] (setting [16]) was 61.1962 pmol/106 cells and 63.9863 pmol/106 cells and 63.4142 pmol/106 cells and 59.0445 pmol/106 cells; in data set [3] (setting [17]) it was 56.6821 pmol/106 cells and 56.5302 pmol/106 cells and 54.8514 pmol/106 cells and 60.04 pmol/106 cells; in data set [3] (setting [18]) it was 69.6732 pmol/106 cells and 73.6155 pmol/106 cells and 56.0547 pmol/106 cells and 49.9876 pmol/106 cells; in data set [3] (setting [19]), 1.14 pmol/min/106 cells and 1.25 pmol/min/106 cells and 1.17 pmol/min/106 cells. Further, the “Enzyme activity, Mean” value in data set [3] (PXB-cells (JFC)) is 0.991 pmol/min/106 cells; in data set [3] (icHep (HUM18100B)) it was 1.22 pmol/min/106 cells; in data set [3] (icHep (JFC)) it was 1.20 pmol/min/106 cells.
